Laboratory results published in US20090089889A9, “Neuromedin u receptor subtype 1 deficient transgenic mice and uses thereof” (priority 2006, published 2009).
Entries after “also recorded” stand apart in the source; their conditions may differ. Where no end group is shown, it is not given here.

What was measured:
Type in all cases: in vivo, mouse
C57BL/6 mice [1] = assay: 7-day chronic s.c. infusion via Alzet micro-osmotic pumps; settings: C57BL/6 mice, 0.3, 1, 3 or 10 mpk NMU/day s.c. infusion for 7 days
Source text: FIG. 3 describes the results from treatment of C57BL/6 mice with either vehicle (H2O); 0.3, 1, 3 or 10 mpk NMU/day; or 10 mpk MTII/day for 7 days via Alzet micro-osmotic pumps implanted sc in the intrascapular space. 7-day cumulative effects on body weight (A), adiposity (B) and food intake (C). *, P<0.05 vs. Vehicle; n=4-10 per treatment group.
(§1) Immediately following surgery, mice were given an im injection of atapimazole. Five days following the initial surgery, mice were again anesthetized and placed in the stereotactic device. Micro-osmotic pumps were removed and replaced with mini-osmotic pumps designed to deliver 0.5 μl/h (Alza Co.) and filled with either aCSF or mouse NMU-23 (Mimotopes) or MTII (Bachem) dissolved in aCSF. The pH of all solutions was adjusted to ˜7 with NaOH. Immediately following surgery, mice were given an im injection of atapimazole. For chronic sc infusions studies, mice were anesthetized and then a micro-osmotic pump designed to deliver 0.5 μl/h and filled with either sterile H2O or mouse NMU-23 (Mimotopes) or MTII (Bachem) dissolved in sterile H2O was implanted subcutaneously in the intrascapular space. The pH of all solutions was adjusted to ˜7 with NaOH. Immediately following surgery, mice were given an im injection of atapimazole.
(§2) For acute nocturnal feeding studies, ad libitum fed male mice maintained on regular chow were weighed and dosed either intraperitoneally (ip) or icv ˜30 min prior to the onset of the dark phase of the light cycle and provided with a preweighed aliquot of chow which was then weighed two and 18 hours (overnight) after the onset of the dark phase. […] For chronic feeding studies, ad libitum fed male mice normally maintained on regular chow were switched to a palatable moderate fat diet at the initiation of treatment and food intake and body weight were measured daily.
Whole body composition analysis of conscious live mice was conducted using a Quantitative Magnetic Resonance (QMR) method (EchoMRI™, Echo Medical Systems, Houston, Tex.) (Tinsley et al. (2004) Obesity Research 12:150). […]

Nmur2−/− mice [2] = assay: Acute peripheral (i.p.) NMU administration in NMUR2 knockout mice; settings: peripherally administered NMU
Method: (§3) Food intake (FIG. 1A) and body weight (FIG. 1B) were measured in C57BL/6 mice dosed intraperitoneally (i.p.) either with vehicle (saline) or with NMU approximately 30 minutes prior to onset of darkness. Measurements were taken about 18 hours later. * indicates p value of <0.05, n=6 per treatment group. In FIGS. 1C and 1D, food intake and body weight are measured in Nmur1 and Nmur2 mice dosed ip with either saline or 30 mg/kg (mkg) NMU about 30 minutes prior to the onset of the dark phase. Measurements were taken 18 hrs later. *, P<0.05 vs. saline, n=6 per treatment group. Nmur1 or Nmur2 mice were dosed i.p. with either vehicle (saline) or 30 mpk NMU ˜30 min. prior to the onset of the dark phase and food intake (C) and body weights (D) were measured 18 h (overnight) later. *, P<0.05 vs. corresponding vehicle; #, P<0.05 vs. Nmu1r+/+, NMU; $, P=0.052; n=10 per treatment group.
(§4) The Nmur1 mice were maintained on a 50% C57BL/6×50% 129S6/SvEv background and Nmur2 mice (licensed from Deltagen) on a 75% C57BL/6×25% 129/OlaHsd background. For comparison with wild-type, 10-12 week-old male C57BL/6 mice were purchased from Taconic Farms. Mice were individually housed in Tecniplast cages in a conventional SPF facility. […]

DIO mice = assay: 13-day chronic subcutaneous infusion in DIO mice
Method: as §1
(§5) The Nmur1 mice were maintained on a 50% C57BL/6×50% 129S6/SvEv background and Nmur2 mice (licensed from Deltagen) on a 75% C57BL/6×25% 129/OlaHsd background. For comparison with wild-type, 10-12 week-old male C57BL/6 mice were purchased from Taconic Farms. Mice were individually housed in Tecniplast cages in a conventional SPF facility. Mice were maintained on either regular chow (Teklad 7012: 13.4% kcal from fat; Harlan Teklad), a moderate fat diet (D12266B: 32% kcal from fat; Research Diets, Inc.) or, to induce obesity (DIO), a high fat diet (D12492: 60% kcal from fat; Research Diets, Inc.) with ad libitum access to water in a 12-h light/12-h dark cycle, unless stated otherwise.

C57BL/6 mice [3] = assay: Acute nocturnal feeding study, central (i.c.v.) NMU in wild-type mice; settings: measured 2 h later
Method: (§6) FIG. 2A describes results from an experiment where C57BL/6 mice were dosed intracerebronventricularly (i.c.v) with either vehicle (aCSF) or NMU ˜30 min. prior to the onset of the dark phase and food intake was measured 2 h later. *, P<0.05 vs. vehicle; n=12-24 per group. In FIG. 2B, Nmur1 or Nmur2 mice were dosed i.c.v. with either vehicle (aCSF) or 3 μg NMU ˜30 min. prior to the onset of the dark phase and food intake was measured 2 h later. *, P<0.05 vs. corresponding vehicle; #, P<0.05 vs. Nmur2+/+, NMU; n=14 per treatment group.
(§7) Mice were anesthetized with an intramuscular (im) injection of ketamine (100 mg/kg) and domitor (0.75 mg/kg) and placed in a stereotactic device (Kopf Instruments). […]
as §2

Nmur1−/− mice [4] = assay: Acute central (i.c.v.) NMU administration in NMUR1 knockout mice; settings: centrally administered NMU
Method: as §6, §7, §2

[5] = tested on: diet-induced obese C57BL/6 mice; assay: Core body temperature after acute i.p. dosing of fasted diet-induced obese mice; settings: overnight fasted DIO C57BL/6 mice, i.p. 0.3, 1, 3 or 10 mpk NMU, 6 h monitoring
Method: FIG. 5 presents the results of an experiment where overnight fasted diet-induced obese C57BL/6 mice were dosed i.p. with either vehicle (saline); 0.3, 1, 3 or 10 mpk NMU; or 5 mpk MTII. Core temperature is plotted as change from vehicle baseline. A, hourly change. B, 6-h cumulative change.
Body temperature changes were measured as well. Male diet-induced obese mice maintained on a high fat diet were implanted with Mini-Mitter transmitters (Mini Mitter, Bend, Oreg.) prior to the study. Temperature recordings were initiated one day prior to dosing. Mice were fasted overnight and then the following morning 3 h after the onset of the light phase mice were dosed ip. Core body temperature was monitored for 6 h following dosing.

C57BL/6 mice [6] = assay: Acute nocturnal feeding study, peripheral (i.p.) NMU in wild-type mice; settings: i.p. (peripheral) ~30 min before dark phase, measured 18 h later
Method: as §3, §4
All resultant measurement values were reported as mean±S.E.M. and data was analyzed by the two-tailed unpaired Student's t test. […]

Nmur1−/− mice [7] = assay: Acute NMU administration (peripheral, i.p.) in NMUR1 knockout mice
Method: as §3
Nmur1 knockout (Nmur1^−/−) mice were generated using standard homologous recombination techniques. Briefly, a mouse genomic DNA library was screened with a mouse Nmur1mur cDNA probe, which was generated by PCR. One positive clone was isolated. Two regions of the clone were subcloned into pKO Scrambler NTKV-1904 (Stratagene) and a targeting vector was generated. The targeting vector was linearized by NotI restriction enzyme digestion and transformed into AB2.1 embryonic stem (ES) cells by electroporation with a Bio-Rad Gene Pulser. Transfected cells were cultured with G418 and FIAU for positive and negative selections, respectively. Approximately 500 clones were selected, and 20 correctly targeted ES cell clones were identified by Southern blot analysis. Five correctly targeted ES clones were injected into C57BL/6 blastocysts and these were implanted into pseudopregnant female mice. Several chimeric progeny gave germ-line transmission of the mutant NMUR1 allele and one NMUR1^−/− was established. F3 hybrid mice were used in all experiments
as §5
(§8) For acute nocturnal feeding studies, ad libitum fed male mice maintained on regular chow were weighed and dosed either intraperitoneally (ip) or icv ˜30 min prior to the onset of the dark phase of the light cycle and provided with a preweighed aliquot of chow which was then weighed two and 18 hours (overnight) after the onset of the dark phase. Mice were again weighed at the later time point. For chronic feeding studies, ad libitum fed male mice normally maintained on regular chow were switched to a palatable moderate fat diet at the initiation of treatment and food intake and body weight were measured daily.

C57BL/6 mice [8] = assay: 14-day chronic i.c.v. infusion via Alzet mini-osmotic pumps
Method: FIG. 4 depicts treatment of C57BL/6 mice with either vehicle (aCSF); 12, 36 or 120 μg NMU/day; or 4.8 μg MTII/day for 14 days via Alzet mini-osmotic pumps implanted subcutaneously in the intrascapular space and connected with a catheter to a permanent indwelling i.c.v cannula implanted in the dorsal third cerebroventricle. 14-day cumulative effects on body weight (A), adiposity (B) and food intake (C). *, P<0.05 vs. vehicle; n=5-8 per group.
Mice were anesthetized with an intramuscular (im) injection of ketamine (100 mg/kg) and domitor (0.75 mg/kg) and placed in a stereotactic device (Kopf Instruments). For acute i.c.v. studies, a 26-gauge single acute guide cannula (Plastics One) was implanted into the dorsal third cerebral ventricle (0.22 mm posterior, 0.3 mm lateral and 3.3 mm ventral to bregma) and secured to the skull with cyanoacrylate adhesive followed by dental cement. Following surgery, a 33-gauge dummy cannula (Plastics One) was inserted into each guide cannula and mice were given an im injection of atapimazole (5 mg/kg). All cannulated mice were given one week of postoperative recovery, during which time they were handled daily to minimize nonspecific stress. All substances were administered to conscious mice with a repeating dispenser (Hamilton) equipped with a 50-μl Hamilton syringe and 33-gauge needle designed to extend 0.1-0.2 mm beyond the tip of the guide cannula. Mouse NMU-23 (Phoenix Pharmaceuticals) was dissolved in artificial cerebrospinal fluid (aCSF; Harvard Apparatus) and adjusted the pH to ˜7 with NaOH. All substances were injected in a total volume of 1 μl. Mice were given at least a 48-h recovery period between treatments. All acute icv injection studies were of crossover design, a paradigm in which mice initially treated with vehicle are subsequently treated with the agent of interest dissolved in vehicle and vice versa. For chronic icv studies, a 28-gauge osmotic pump connector cannula (Plastics One) was implanted into the dorsal third cerebral ventricle and secured to the skull. Then a micro-osmotic pump designed to deliver 0.5 μl/h (Alza Co.) and filled with aCSF was implanted subcutaneously in the intrascapular space and connected with vinyl tubing to the osmotic pump connector cannula.
as §1
as §8, with “daily. […]” for “daily.”

Nmur2−/− mice [9] = assay: Acute central (i.c.v.) NMU administration in NMUR2 knockout mice; settings: i.c.v. 3 μg NMU, 2 h
Method: as §6, §7, §2

[10] = tested on: lean and DIO C57BL/6 mice; assay: Ad libitum food intake of lean and DIO mice after rat NMU peptide
Method: as §8

[11] = Nmur1−/− transgenic mice, mouse NMU-23 peptide administration, route not stated
[12] = C57BL/6 mice, 12, 36 or 120 μg NMU/day i.c.v. infusion for 14 days
[13] = C57BL/6 mice, 12, 36 or 120 μg NMU/day i.c.v. infusion for 14 days, listed as mouse NMU-23

Substance: NMU: Mouse NMU-23 neuromedin U peptide (Phoenix Pharmaceuticals, Mimotopes), agonist of NMUR1 and NMUR2 (FKAEYQSPSVGQSKGYFLFRPRN; ends and bridges not checked; UniProt Q9QXK8 144-166, looked up)
- adiposity, 7-day cumulative (C57BL/6 mice [1]): dose-dependent effects; also recorded: reduces
- body weight, 7-day cumulative (C57BL/6 mice [1]): dose-dependent effects; also recorded: reduces
- food intake, 7-day cumulative (C57BL/6 mice [1]): dose-dependent effects; also recorded: reduces
- anorectic actions (food intake) (Nmur2−/− mice [2]): present
- body weight (DIO mice): demonstrable effects
- core temperature (DIO mice): demonstrable effects
- food intake (DIO mice): demonstrable effects
- food intake (C57BL/6 mice [3]): reduces
- anorectic actions (food intake) (Nmur1−/− mice [4]): present
- core body temperature (change from vehicle baseline) [5]: dose-dependent effect; also recorded: dose-dependently increases
- body weight (C57BL/6 mice [6]): dose-dependent reduction
- food intake (C57BL/6 mice [6]): dose-dependent reduction; also recorded: reduces
- body weight (Nmur1−/− mice [7]; Nmur1 knockout mice, peripheral (i.p.) 30 mpk NMU, 18 h): not seen
- food intake (anorectic action) (Nmur1−/− mice [7]; Nmur1 knockout mice, peripheral (i.p.) 30 mpk NMU, 18 h, 30 mg/kg): not seen; also recorded: absent
- body temperature (Nmur1−/− mice [7]; [11]): largely unaffected
- body weight (Nmur1−/− mice [7]; [11]): largely unaffected
- food intake (Nmur1−/− mice [7]; [11]): largely unaffected
- body composition (C57BL/6 mice [8]; 14-day chronic i.c.v. infusion): Effects are also seen
- adiposity, 14-day cumulative (C57BL/6 mice [8]; [12]): dose-dependent cumulative effects; also recorded: reduces
- body weight, 14-day cumulative (C57BL/6 mice [8]; [12]): dose-dependent cumulative effects; also recorded: reduces
- food intake, 14-day cumulative (C57BL/6 mice [8]; [12]): dose-dependent cumulative effects; also recorded: reduces
- body weight, 14-day cumulative (C57BL/6 mice [8]; [13]): Effects are also seen
- food intake, 14-day cumulative (C57BL/6 mice [8]; [13]): Effects are also seen
- food intake (anorectic action) (Nmur2−/− mice [9]): do not show the same reduction; also recorded: absent

Substance: rNMU-23: a rat NMU peptide (YKVNEYQGPVAPSGGFFLFRPRN; ends and bridges not checked; UniProt P12760 144-166, looked up)
- ad libitum food intake [10]: mimic those of the mouse isoform
